The values below are quoted from earlier work in US11091735B2, “Polyvalent culture medium for anaerobic bacteria under aerobic conditions” (FONDATION MEDITERRANEE INFECTION, priority 2017, dated 2021).

The conditions of this series: stock solution therefore prepared in ethanol.

vitamin E: the solubility in water entry is listed as “not soluble in water”. In the case of `Cc1cc(C(C)(C)C)c(O)c(C(C)(C)C)c1` [BHT, Butylhydroxytoluene], the solubility in water result was “not soluble in water”.
